Measured values taken from the Kinase Knowledgebase extract (Sharma et al. 2016).

Columns and labels:
MAPK14 [1] = target: MAPK14 (UniProt Q16539); assay: MAPK14 Kinase Inhibition
MAPK14 [2] = target: MAPK14 (UniProt Q16539); assay: MAPK14 Binding Inhibition

MAPK14, sequence (Q16539 whole entry, looked up): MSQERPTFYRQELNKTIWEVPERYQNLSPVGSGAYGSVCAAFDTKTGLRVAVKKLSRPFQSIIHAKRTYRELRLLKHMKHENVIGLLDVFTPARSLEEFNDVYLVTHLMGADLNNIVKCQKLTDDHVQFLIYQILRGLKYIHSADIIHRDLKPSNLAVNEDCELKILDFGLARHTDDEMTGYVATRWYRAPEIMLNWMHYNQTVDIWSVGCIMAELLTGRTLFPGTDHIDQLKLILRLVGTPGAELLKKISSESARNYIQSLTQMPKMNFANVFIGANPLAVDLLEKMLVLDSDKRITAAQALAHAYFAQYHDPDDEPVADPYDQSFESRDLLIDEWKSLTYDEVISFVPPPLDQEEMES

Row | IC50 (MAPK14 [1]) [µM] | inhibition (MAPK14 [2]) [µM] | SMILES
1 | < 50 |  | Fc1ccc(-c2ncn(C3CCNCC3)c2-c2ccnc(Nc3ccc(F)c(F)c3)n2)cc1
2 |  | < 50 | NCCNc1nccc(-c2c(-c3ccc(F)cc3)ncn2C2CCNCC2)n1
3 |  | < 50 | CN1CCC(n2cnc(-c3ccc(F)cc3)c2-c2ccnc(Nc3ccccc3)n2)CC1
4 |  | < 50 | CN1CCC(n2cnc(-c3ccc(F)cc3)c2-c2ccnc(NC3CC(C)(C)NC(C)(C)C3)n2)CC1
5 |  | < 50 | Fc1ccc(-c2ncn(C3CCNCC3)c2-c2ccnc(NCCCn3ccnc3)n2)cc1
6 |  | < 50 | CN1CCC(n2cnc(-c3ccc(F)cc3)c2-c2ccnc(NCc3cccc4ccccc34)n2)CC1
7 |  | < 50 | CC1(C)CC(n2cnc(-c3ccc(F)cc3)c2-c2ccnc(Nc3ccccc3)n2)CC(C)(C)N1
8 |  | < 50 | CCOCCCNc1nccc(-c2c(-c3ccc(F)cc3)ncn2C2CCNCC2)n1
9 | < 50 |  | CSc1ccc(-c2ncn(C3CCNCC3)c2-c2ccnc(Nc3ccccc3)n2)cc1
10 | < 50 |  | Fc1ccc(-c2ncn(C3CCNCC3)c2-c2ccnc(Nc3cccc(F)c3)n2)cc1
11 |  | < 50 | CN1CCC(n2cnc(-c3ccc(F)cc3)c2-c2ccnc(NC3CCSCC3)n2)CC1
12 |  | < 50 | CN1CCC(n2cnc(-c3ccc(F)cc3)c2-c2ccnc(NCc3ccccc3)n2)CC1
13 |  | < 50 | Fc1ccc(-c2ncn(C3CCNCC3)c2-c2ccnc(Nc3ccccc3)n2)cc1
14 | < 50 |  | COc1cccc(Nc2nccc(-c3c(-c4ccc(F)cc4)ncn3C3CCNCC3)n2)c1
15 | < 50 |  | Fc1ccc(Nc2nccc(-c3c(-c4ccc(F)cc4)ncn3C3CCNCC3)n2)cc1

The remaining lines, values behind:

Row | SMILES | IC50 (MAPK14 [1]) [µM] | inhibition (MAPK14 [2]) [µM]
16 | COc1ccccc1Nc1nccc(-c2c(-c3ccc(F)cc3)ncn2C2CCNCC2)n1 | < 50 | 
17 | CN1CCC(n2cnc(-c3ccc(F)cc3)c2-c2ccnc(NCc3cccc(Cl)c3)n2)CC1 |  | < 50
18 | CN1CCC(n2cnc(-c3ccc(F)cc3)c2-c2ccnc(NCCO)n2)CC1 |  | < 50
19 | Oc1cccc(Nc2nccc(-c3c(-c4ccc(F)cc4)ncn3C3CCNCC3)n2)c1 | < 50 | 
20 | CCOC(=O)N1CCC(n2cnc(-c3ccc(F)cc3)c2-c2ccnc(Nc3ccc(OCc4ccccc4)cc3)n2)CC1 | < 50 | 
21 | Fc1ccc(-c2ncn(C3CCNCC3)c2-c2ccnc(Nc3cccc(Br)c3)n2)cc1 |  | < 50
22 | CN1CCC(n2cnc(-c3ccc(F)cc3)c2-c2ccnc(NCc3cccc4c3OCO4)n2)CC1 |  | < 50
23 | CN1CCC(n2cnc(-c3ccc(F)cc3)c2-c2ccnc(NC3CCNCC3)n2)CC1 |  | < 50
24 | CN1CCC(n2cnc(-c3ccc(F)cc3)c2-c2ccnc(NC3CCN(Cc4ccccc4)CC3)n2)CC1 |  | < 50
25 | O[C@H]1CC[C@H](n2cnc(-c3ccc(F)cc3)c2-c2ccnc(Nc3ccccc3)n2)CC1 |  | < 50
26 | COc1ccc(Nc2nccc(-c3c(-c4ccc(F)cc4)ncn3C3CCNCC3)n2)cc1 | < 50 | 
27 | C[S+]([O-])c1ccc(-c2ncn(C3CCNCC3)c2-c2ccnc(Nc3ccccc3)n2)cc1 (configuration not stated) | < 50 | 
28 | CC1(C)CC(n2cnc(-c3ccc(F)cc3)c2-c2ccnc(NCCO)n2)CC(C)(C)N1 |  | < 50
29 | CCOC(=O)N1CCC(Nc2nccc(-c3c(-c4ccc(F)cc4)ncn3C3CCN(C)CC3)n2)CC1 |  | < 50
30 | Fc1ccc(-c2ncn(C3CCNCC3)c2-c2ccnc(Nc3ccccc3)c2)cc1 |  | < 50
31 | CN1CCC(n2cnc(-c3ccc(F)cc3)c2-c2ccnc(NCCCN3CCOCC3)n2)CC1 |  | < 50
32 | CCOC(=O)N1CCC(n2cnc(-c3ccc(F)cc3)c2-c2ccnc(Nc3cccc(OCc4ccccc4)c3)n2)CC1 | < 50 | 
33 | Fc1ccc(-c2ncn(C3CCNCC3)c2-c2ccnc(Nc3cccc(C(F)(F)F)c3)n2)cc1 | < 50 | 
34 | Fc1ccc(-c2ncn(C3CCNCC3)c2-c2ccnc(Nc3ccccc3F)n2)cc1 | < 50 | 
35 | CN1CCC(n2cnc(-c3ccc(F)cc3)c2-c2ccnc(NCCc3c[nH]c4ccc(Cl)cc34)n2)CC1 |  | < 50
36 | Oc1ccc(Nc2nccc(-c3c(-c4ccc(F)cc4)ncn3C3CCNCC3)n2)cc1 | < 50 | 
37 | O=C1CCC(n2cnc(-c3ccc(F)cc3)c2-c2ccnc(Nc3ccccc3)n2)CC1 |  | < 50
